From patent US20250145598A1, “ACID CERAMIDASE INHIBITORS AND USES THEREOF” (The Regents of the University of California, priority 2021, published 2025)

Target: T1, Acid ceramidase (Homo sapiens, UniProt Q13510)
T1 sequence (Q13510 22-395): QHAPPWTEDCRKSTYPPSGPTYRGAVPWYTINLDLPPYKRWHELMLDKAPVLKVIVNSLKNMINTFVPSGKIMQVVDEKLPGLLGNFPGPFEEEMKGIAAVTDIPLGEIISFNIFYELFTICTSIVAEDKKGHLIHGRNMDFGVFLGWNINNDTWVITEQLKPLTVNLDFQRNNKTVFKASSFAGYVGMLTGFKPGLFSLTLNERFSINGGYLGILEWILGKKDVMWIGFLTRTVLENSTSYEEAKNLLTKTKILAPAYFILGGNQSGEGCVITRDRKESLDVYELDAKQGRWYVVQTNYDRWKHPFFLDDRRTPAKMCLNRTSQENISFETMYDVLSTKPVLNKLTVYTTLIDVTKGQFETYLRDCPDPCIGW
Assay: Acid ceramidase assay (AC in vitro IC50)
Format: biochemical
Conditions: Acid ceramidase assay data of example compounds

| SMILES | IC50 [nM] |
| --- | --- |
| CS(=O)(=O)c1ccc(COc2ccc(-c3cn(C(=O)NCC4CN(Cc5ccccc5)C4)cn3)cc2)cc1 [AC2020601-0377, N-((1-benzylazetidin-3-yl)methyl)-4-(4-((4-(methylsulfonyl)benzyl)oxy)phenyl)-1H-imidazole-1-carboxamide] | > 3000 |
| N#Cc1cccnc1COc1ccc(-c2cn(C(=O)NCC3CCN(c4ccccc4)C3)cn2)cc1 (centres unmarked) [AC2020601-0451, 4-(4-((3-cyanopyridin-2-yl)methoxy)phenyl)-N-((1-phenylpyrrolidin-3-yl)methyl)-1H-imidazole-1-carboxamide] | < 300 |
| CS(=O)(=O)c1ccc(COc2ccc(-c3cn(C(=O)NCC4CCN(c5ccc6c(c5)CCO6)C4)cn3)cc2)cc1 (centres unmarked) [AC2020601-0506, N-((1-(2,3-dihydrobenzofuran-5-yl)pyrrolidin-3-yl)methyl)-4-(4-(4-(methylsulfonyl)benzyloxy)phenyl)-1H-imidazole-1-carboxamide] | < 300 |
| Cn1cnc(COc2ccc(-c3cn(C(=O)NCC4CCN(c5ccccc5)C4)cn3)cc2)n1 (centres unmarked) [AC2020601-0447, 4-(4-((1-methyl-1H-1,2,4-triazol-3-yl)methoxy)phenyl)-N-((1-phenylpyrrolidin-3-yl)methyl)-1H-imidazole-1-carboxamide] | < 300 |
| O=C(NCCCOc1ccccc1)n1cnc(-c2ccc(OCc3ccc(S(=O)(=O)N4CCOCC4)cc3)cc2)c1 [AC2020601-0347, 4-(4-((4-(morpholinosulfonyl)benzyl)oxy)phenyl)-N-(3-phenoxypropyl)-1H-imidazole-1-carboxamide] | < 300 |
| CS(=O)(=O)c1ccc(COc2ccc(-c3cn(C(=O)NCC4CCN(c5ccccc5)C4)cn3)cc2)nc1 (centres unmarked) [AC2020601-0445, 4-(4-((5-(methylsulfonyl)pyridin-2-yl)methoxy)phenyl)-N-((1-phenylpyrrolidin-3-yl)methyl)-1H-imidazole-1-carboxamide] | < 300 |
| C[C@@H](Oc1ccc(-c2cn(C(=O)NCCCOc3ccccc3)cn2)cc1)c1ccc(S(C)(=O)=O)cc1 (single isomer, unassigned) [AC2020601-0349] | < 300 |
| C[C@H](Oc1ccc(-c2cn(C(=O)NCCCOc3ccccc3)cn2)cc1)c1ccc(S(C)(=O)=O)cc1 (single isomer, unassigned) [AC2020601-0348] | < 300 |
| O=C(Nc1ccc(COc2ccc(-c3cn(C(=O)NCC4CCN(c5ccccc5)C4)cn3)cc2)cc1)C1CC1 (centres unmarked) [AC2020601-0437, 4-(4-((4-(cyclopropanecarboxamido)benzyl)oxy)phenyl)-N-((1-phenylpyrrolidin-3-yl)methyl)-1H-imidazole-1-carboxamide] | < 300 |
| O=C(NCC1CC1)n1cnc(-c2ccc(OCc3ccc(F)cc3)cc2)c1 [AC2020601-0206, N-(cyclopropylmethyl)-4-(4-(4-fluorobenzyloxy)Vphenyl)-1H-imid azole-1-carboxamide] | < 300 |
| CS(=O)(=O)c1ccc(COc2ccc(-c3cn(C(=O)NCCCOc4ccc(S(F)(F)(F)(F)F)cc4)cn3)cc2)cc1 [AC2020601-0374] | < 300 |
| N#Cc1cccc(COc2ccc(-c3cn(C(=O)NCCCCc4ccccc4)cn3)cc2)c1 [AC2020601-0275, 4-(4-((3-cyanobenzyl)oxy)phenyl)-N-(4-phenylbutyl)-1H-imidazole-1-carboxamide] | < 300 |
| Cn1cc(COc2ccc(-c3cn(C(=O)NCC4CCN(c5ccccc5)C4)cn3)cc2)nn1 (centres unmarked) [AC2020601-0489, 4-(4-((1-methyl-1H-1,2,3-triazol-4-yl)methoxy)phenyl)-N-((1-phenylpyrrolidin-3-yl)methyl)-1H-imidazole-1-carboxamide] | < 300 |
| CS(=O)(=O)c1ccc(C(=O)Oc2ccc(-c3cn(C(=O)NCC4CCN(c5ccccc5)C4)cn3)cc2)cc1 (centres unmarked) [AC2020601-0501, 4-(1-((1-phenylpyrrolidin-3-yl)methylcarbamoyl)-1H-imidazol-4-yl)phenyl 4-(methylsulfonyl)benzoate] | < 300 |
| NS(=O)(=O)c1ccc(COc2ccc(-c3cn(C(=O)NCCCCc4ccccc4)cn3)cc2)cc1 [AC2020601-0284, N-(4-phenylbutyl)-4-(4-((4-sulfamoylbenzyl)oxy)phenyl)-1H-imidazole-1-carboxamide] | < 300 |
| Cn1nc(C(F)(F)F)cc1COc1ccc(-c2cn(C(=O)NCC3CCN(c4ccccc4)C3)cn2)cc1 (centres unmarked) [AC2020601-0481, 4-(4-((1-methyl-3-(trifluoromethyl)-1H-pyrazol-5-yl)methoxy)phenyl)-N-((1-phenylpyrrolidin-3-yl)methyl)-1H-imidazole-1-carboxamide] | < 300 |
| CS(=O)(=O)c1ccc(COc2ccc(-c3cn(C(=O)NC[C@@H]4CCN(c5ccccc5)C4)cn3)cc2)cc1 (single isomer, unassigned) [AC2020601-0384a] | < 300 |
| CS(=O)(=O)Nc1ccc(COc2ccc(-c3cn(C(=O)NCC4CN(c5ccccc5)C4)cn3)cc2)cc1 [AC2020601-0380, 4-(4-((4-(methylsulfonamido)benzyl)oxy)phenyl)-N-((1-phenylazetidin-3-yl)methyl)-1H-imidazole-1-carboxamide] | > 3000 |
| CN(CCCCc1ccccc1)C(=O)n1cnc(-c2ccc(OCc3ccccc3)cc2)c1 [AC2020601-0278, 4-(4-(benzyloxy)phenyl)-N-methyl-N-(4-phenylbutyl)-1H-imidazole-1-carboxamide] | > 3000 |
| CS(=O)(=O)c1ccc(COc2ccc(-c3cn(C(=O)NCCCCc4ccccc4)cn3)cc2)cc1 [AC2020601-0243, 4-(4-((4-(methylsulfonyl)benzyl)oxy)phenyl)-N-(4-phenylbutyl)-1H-imidazole-1-carboxamide] | < 300 |
| CS(=O)(=O)c1ccc(COc2ccc(-c3cn(C(=O)NCC4CCN(c5cccc(C(F)(F)F)c5)C4)cn3)cc2)cc1 (centres unmarked) [AC2020601-0498, 4-(4-((4-(methylsulfonyl)benzyl)oxy)phenyl)-N-((1-(3-(trifluoromethyl)phenyl)pyrrolidin-3-yl)methyl)-1H-imidazole-1-carboxamide] | < 300 |
| CCCCCCNC(=O)n1cnc(-c2ccc(OCc3ccc(S(C)(=O)=O)cc3)cc2)c1 [AC2020601-0296, N-hexyl-4-(4-((4-(methylsulfonyl)benzyl)oxy)phenyl)-1H-imidazole-1-carboxamide] | < 300 |
| CN1CCN(c2cccc(COc3ccc(-c4cn(C(=O)NCC5CN(c6ccccc6)C5)cn4)cc3)c2)CC1=O [AC2020601-0449, 4-(4-(3-(4-methyl-3-oxopiperazin-1-yl)benzyloxy)phenyl)-N-((1-phenylazetidin-3-yl)methyl)-1H-imidazole-1-carboxamide] | < 300 |
| CS(=O)(=O)c1ccc(COc2ccccc2-c2cn(C(=O)NCC3CN(c4ccccc4)C3)cn2)cc1 [AC2020601-0456, 4-(2-(4-(methylsulfonyl)benzyloxy)phenyl)-N-((1-phenylazetidin-3-yl)methyl)-1H-imidazole-1-carboxamide] | < 300 |
| CCCCCCNC(=O)n1cnc(-c2ccccc2OCc2ccccc2)c1 [AC2020601-0199, 4-(2-(benzyloxy)phenyl)-N-hexyl-1H-imidazole-1-carboxamide] | < 300 |
| CS(=O)(=O)c1ccc(C(CO)Oc2ccc(-c3cn(C(=O)NCC4CCN(c5ccccc5)C4)cn3)cc2)cc1 (centres unmarked) [AC2020601-0428, 4-(4-(2-hydroxy-1-(4-(methylsulfonyl)phenyl)ethoxy)phenyl)-N-((1-phenylpyrrolidin-3-yl)methyl)-1H-imidazole-1-carboxamide] | < 300 |
